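Cultured in 96-well plates, cells were exposed to test compound for 48 hours across five concentrations. GI50 is the concentration that inhibits growth by half.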 Calls of active or inactive are those of the source. Rule as the data show it: active = GI50 up to about 1.1 µM and inactive = higher.
Experiments:
Assay in all cases: NCI-60 cell line screen, 48 h
Malme-3M = system: Malme-3M
TK-10 = system: TK-10
HT-29 = system: HT-29
NCI-H23 = system: NCI-H23
786-0 = system: 786-0
OVCAR-4 = system: OVCAR-4
SNB-19 = system: SNB-19
MDA-MB-231 = system: MDA-MB-231
MOLT-4 = system: MOLT-4
CCRF-CEM = system: CCRF-CEM
OVCAR-3 = system: OVCAR-3
UO-31 = system: UO-31
NCI-H460 = system: NCI-H460
HCC 2998 = system: HCC 2998
SK-OV-3 = system: SK-OV-3
A549 = system: A549
KM12 = system: KM12
RXF 393 = system: RXF 393
LOX IMVI = system: LOX IMVI
HL-60 = system: HL-60

Compound | GI50 (Malme-3M) | GI50 (TK-10) | GI50 (HT-29) | GI50 (NCI-H23) | GI50 (786-0) | GI50 (OVCAR-4) | GI50 (SNB-19) | GI50 (MDA-MB-231) | GI50 (MOLT-4) | GI50 (CCRF-CEM) | GI50 (OVCAR-3) | GI50 (UO-31) | GI50 (NCI-H460) | GI50 (HCC 2998) | GI50 (SK-OV-3) | GI50 (A549) | GI50 (KM12) | GI50 (RXF 393) | GI50 (LOX IMVI) | GI50 (HL-60)
O=C1C=C(Nc2cccnc2)c2ccccc2C1=O | 2.34 µM (inactive) | 19.1 µM (inactive) | 17 µM (inactive) | 2.8 µM (inactive) | 8.95 µM (inactive) | 8.87 µM (inactive) | 7.1 µM (inactive) | 4.61 µM (inactive) | 17.6 µM (inactive) | 15.2 µM (inactive) | 2.72 µM (inactive) | 12 µM (inactive) | 3.41 µM (inactive) | 11.2 µM (inactive) | 8.71 µM (inactive) | 3.65 µM (inactive) | 4.03 µM (inactive) | 13.1 µM (inactive) | 2.61 µM (inactive) | 3.31 µM (inactive)
C/C(=N/NC(=S)N1CC2CCC(CC2)C1)c1cnccn1 | < 0.01 µM (active) | 0.67 µM (active) | < 0.01 µM (active) | < 0.01 µM (active) | < 0.01 µM (active) | 0.0264 µM (active) | 0.406 µM (active) | < 0.01 µM (active) | < 0.01 µM (active) | < 0.01 µM (active) | < 0.01 µM (active) | < 0.0168 µM (active) | < 0.0109 µM (active) | 0.218 µM (active) | < 0.01 µM (active) | < 0.01 µM (active) |  | 0.541 µM (active) | < 0.01 µM (active) | < 0.01 µM (active)
S=C1NCCN1C(=S)NC1CCCCC1 | 20.8 µM (inactive) | 27.6 µM (inactive) | 21.8 µM (inactive) | 21.8 µM (inactive) | 37.9 µM (inactive) | 19.3 µM (inactive) |  | 44.8 µM (inactive) | 21.1 µM (inactive) | 45.2 µM (inactive) | 31.3 µM (inactive) | 26.7 µM (inactive) | 20.3 µM (inactive) | 20.9 µM (inactive) | 39.4 µM (inactive) | 27 µM (inactive) | 24.4 µM (inactive) | 4.28 µM (inactive) | 35.8 µM (inactive) | 40.7 µM (inactive)
C[N+](C)([O-])Cc1cccc(NC(=O)c2ccc(C(=O)Nc3cccc(C[N+](C)(C)[O-])c3)cc2)c1 | > 100 µM (inactive) | > 100 µM (inactive) | > 100 µM (inactive) | > 100 µM (inactive) | > 100 µM (inactive) | > 100 µM (inactive) | > 100 µM (inactive) | > 100 µM (inactive) | > 100 µM (inactive) | > 100 µM (inactive) | > 100 µM (inactive) | > 100 µM (inactive) | > 100 µM (inactive) | > 100 µM (inactive) | > 100 µM (inactive) | > 100 µM (inactive) | > 100 µM (inactive) | > 100 µM (inactive) | > 100 µM (inactive) | > 100 µM (inactive)
O=[N+]([O-])c1ccc2oc(=N/c3ccccc3)/c(=N\c3ccccc3)[nH]c2c1 | 87.1 µM (inactive) | 26.8 µM (inactive) | 87.3 µM (inactive) | 57.4 µM (inactive) | 22.6 µM (inactive) | 37.9 µM (inactive) | 41 µM (inactive) | 7.87 µM (inactive) | > 100 µM (inactive) | > 100 µM (inactive) |  | 77.1 µM (inactive) | 29.6 µM (inactive) | 83.6 µM (inactive) | 55.7 µM (inactive) | 59.8 µM (inactive) | 37.5 µM (inactive) | 24.9 µM (inactive) | 88.1 µM (inactive) | > 100 µM (inactive)
O=C1NC(=S)N(c2ccccc2)C1=O | > 100 µM (inactive) | > 100 µM (inactive) | > 100 µM (inactive) | > 100 µM (inactive) | > 100 µM (inactive) | > 100 µM (inactive) | > 100 µM (inactive) | > 100 µM (inactive) | > 100 µM (inactive) | > 100 µM (inactive) |  | > 100 µM (inactive) | > 100 µM (inactive) | > 100 µM (inactive) | > 100 µM (inactive) | > 100 µM (inactive) | > 100 µM (inactive) | > 100 µM (inactive) | > 100 µM (inactive) | > 100 µM (inactive)
COC(=O)c1c2c(cc3c1CC1(Cc4ccccc4C1=O)C3)CCC2 (configuration not stated) | 20.3 µM (inactive) | 51.3 µM (inactive) | 17.1 µM (inactive) | 38.8 µM (inactive) | 25.2 µM (inactive) | 36.1 µM (inactive) | > 100 µM (inactive) | 21.4 µM (inactive) | 12.2 µM (inactive) | 28.2 µM (inactive) | 19.5 µM (inactive) | 13.9 µM (inactive) | 29.9 µM (inactive) | 36.6 µM (inactive) | > 100 µM (inactive) | 20.7 µM (inactive) | 25.5 µM (inactive) | 19.5 µM (inactive) | 31 µM (inactive) | 16 µM (inactive)
c1ccc2c(Cc3[nH]c4ccccc4c3Cc3c[nH]c4ccccc34)c[nH]c2c1 | 2.05 µM (inactive) | 2.85 µM (inactive) | 2.52 µM (inactive) | 2.1 µM (inactive) | 1.73 µM (inactive) | 3.06 µM (inactive) | 4.93 µM (inactive) | 2.12 µM (inactive) | 1.66 µM (inactive) | 2.16 µM (inactive) | 3.16 µM (inactive) | 3.35 µM (inactive) | 1.91 µM (inactive) | 1.64 µM (inactive) | 3.56 µM (inactive) | 3.1 µM (inactive) | 2.09 µM (inactive) | 1.94 µM (inactive) | 2.19 µM (inactive) | 1.86 µM (inactive)
O=C1/C(=C/c2ccc(Cl)cc2)CSC/C1=C\c1ccc(Cl)cc1 | 10.3 µM (inactive) | 3.18 µM (inactive) | 1.97 µM (inactive) | 2.9 µM (inactive) | 3.08 µM (inactive) | 3.71 µM (inactive) | 4.84 µM (inactive) | 4.17 µM (inactive) | 2.61 µM (inactive) | 2.68 µM (inactive) | 2.93 µM (inactive) | 1.92 µM (inactive) | 3.32 µM (inactive) | 2.07 µM (inactive) | 5.32 µM (inactive) | 4.08 µM (inactive) | 1.96 µM (inactive) | 1.35 µM (inactive) | 1.91 µM (inactive) | 1.34 µM (inactive)
N#Cc1c(NC(=S)Nc2ccccc2)sc2c1CCCC2 | > 100 µM (inactive) | > 100 µM (inactive) | > 100 µM (inactive) | > 100 µM (inactive) | > 100 µM (inactive) | > 100 µM (inactive) | > 100 µM (inactive) | > 100 µM (inactive) | > 100 µM (inactive) |  | > 100 µM (inactive) | > 100 µM (inactive) | > 100 µM (inactive) | > 100 µM (inactive) |  |  | > 100 µM (inactive) | > 100 µM (inactive) | > 100 µM (inactive) | > 100 µM (inactive)
O=c1cc(NNc2ccccc2)[nH]c(=S)[nH]1 | 37.7 µM (inactive) | 24.9 µM (inactive) | 37.8 µM (inactive) | 47.1 µM (inactive) | 4.9 µM (inactive) | 71 µM (inactive) | > 100 µM (inactive) | 32.1 µM (inactive) | 35.2 µM (inactive) | 29.8 µM (inactive) | 16.7 µM (inactive) | > 100 µM (inactive) | 76.2 µM (inactive) | 17.4 µM (inactive) | > 100 µM (inactive) | > 100 µM (inactive) | 27.5 µM (inactive) | 50.2 µM (inactive) | 16.8 µM (inactive) | 25.1 µM (inactive)
S=C(/N=c1/sc(Nc2ccccc2)nc2sc3c(c12)CCCC3)Nc1ccccc1 | > 62.5 µM (inactive) | > 62.5 µM (inactive) | > 62.5 µM (inactive) | > 62.5 µM (inactive) | > 62.5 µM (inactive) | > 62.5 µM (inactive) | > 62.5 µM (inactive) | > 62.5 µM (inactive) | > 62.5 µM (inactive) | > 62.5 µM (inactive) | > 62.5 µM (inactive) | > 62.5 µM (inactive) | > 62.5 µM (inactive) | > 62.5 µM (inactive) | > 62.5 µM (inactive) |  | > 62.5 µM (inactive) | > 62.5 µM (inactive) | > 62.5 µM (inactive) | > 62.5 µM (inactive)
COc1ccc(C(=O)/C=C/c2ccc(OCC(=O)O)cc2)cc1 | 50.7 µM (inactive) | > 100 µM (inactive) | > 100 µM (inactive) | > 100 µM (inactive) | 60.1 µM (inactive) |  | 98.6 µM (inactive) | 59.2 µM (inactive) | 8.57 µM (inactive) | 31.7 µM (inactive) | 60.4 µM (inactive) | > 100 µM (inactive) |  | 27.7 µM (inactive) |  | > 100 µM (inactive) | 51.5 µM (inactive) | > 100 µM (inactive) | 33.6 µM (inactive) | > 100 µM (inactive)
CCN(CCCl)c1cc(CN(C)C)cc(NC(=O)c2cc(C(=O)Nc3cc(CN(C)C)cc(N(CC)CCCl)c3)n(C)n2)c1 | 1.49 µM (inactive) | 2.69 µM (inactive) | 0.136 µM (active) | 0.284 µM (active) | < 0.01 µM (active) | 0.485 µM (active) | 0.0658 µM (active) | 1.53 µM (inactive) | < 0.01 µM (active) | < 0.01 µM (active) |  | 3.06 µM (inactive) | < 0.01 µM (active) | 0.755 µM (active) | 0.331 µM (active) | 0.136 µM (active) | 0.236 µM (active) | 0.449 µM (active) | 0.0685 µM (active) | 0.0115 µM (active)
Nc1nc2cc3nc(N)c(N)nc3cc2nc1N | > 100 µM (inactive) | 80.5 µM (inactive) | > 100 µM (inactive) | > 100 µM (inactive) | > 100 µM (inactive) |  | > 100 µM (inactive) | > 100 µM (inactive) | 92.9 µM (inactive) | 64.3 µM (inactive) | > 100 µM (inactive) | > 100 µM (inactive) | > 100 µM (inactive) | > 100 µM (inactive) | > 100 µM (inactive) | > 100 µM (inactive) | > 100 µM (inactive) | > 100 µM (inactive) | > 100 µM (inactive) | 30.1 µM (inactive)

Reference: ChEMBL document CHEMBL1201862, “PubChem BioAssay data set” (2004)
